{"source": "patent US10787452B2", "about": "(Vertex Pharmaceuticals Incorporated, priority 2012, dated 2020)", "data": [{"system": "HCT116 colorectal cancer cells", "experiment": "Cisplatin sensitization assay (96 h cell viability MTS);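 further: compound concentration needed to lower the Cisplatin-alone IC50 by a set fold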", "format": "cell-based", "settings": "96 h MTS, compound plus Cisplatin", "method_in_brief": "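Full-matrix combination: compound × cisplatin, 2-fold dilutions from 10 μM top final, co-added; 96 h, 37° C, 5% CO2; MTS read-out after 1 h.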", "values": [{"smiles": "CCn1cncc1-c1ccncc1NC(=O)c1c(N)nn2cc(F)cnc12", "note": "[I-C-80, 2-amino-N-(4-(1-ethyl-1H-imidazol-5-yl)pyridin-3-yl)-6-fluoropyrazolo[1,5-a]pyrimidine-3-carboxamide]", "Cisplatin Sensitization Assay": "+++ (Compounds with a Cisplatin sensitization value of <0.02 μM are marked with “+++.”)"}, {"smiles": "COc1cncc(NC(=O)c2c(N)nn3cc(F)cnc23)c1-c1cncn1C", "note": "[I-C-81, 2-amino-6-fluoro-N-(5-methoxy-4-(1-methyl-1H-imidazol-5-yl)pyridin-3-yl)pyrazolo[1,5-a]pyrimidine-3-carboxamide]", "Cisplatin Sensitization Assay": "+++ (Compounds with a Cisplatin sensitization value of <0.02 μM are marked with “+++.”)"}, {"smiles": "COc1cncc(NC(=O)c2c(N)nn3cc(F)cnc23)c1-c1cccnc1", "note": "[I-C-82, 2-amino-6-fluoro-N-(5′-methoxy-[3,4′-bipyridin]-3′-yl)pyrazolo[1,5-a]pyrimidine-3-carboxamide]", "Cisplatin Sensitization Assay": "+++ (Compounds with a Cisplatin sensitization value of <0.02 μM are marked with “+++.”)"}, {"smiles": "COCCn1cncc1-c1ccncc1NC(=O)c1c(N)nn2cc(F)cnc12", "note": "[I-C-83, 2-amino-6-fluoro-N-(4-(1-(2-methoxyethyl)-1H-imidazol-5-yl)pyridin-3-yl)pyrazolo[1,5-a]pyrimidine-3-carboxamide]", "Cisplatin Sensitization Assay": "++ (Compounds with a Cisplatin sensitization value >0.02 μM but <0.2 μM are marked with “++.”)"}, {"smiles": "COc1cncc(NC(=O)c2c(N)nn3cc(F)cnc23)c1C1CC1", "note": "[I-C-84, 2-amino-N-(4-cyclopropyl-5-methoxypyridin-3-yl)-6-fluoropyrazolo[1,5-a]pyrimidine-3-carboxamide]", "Cisplatin Sensitization Assay": "++ (Compounds with a Cisplatin sensitization value >0.02 μM but <0.2 μM are marked with “++.”)"}, {"smiles": "CN1CCN(C(=O)C2CCN(c3ccncc3NC(=O)c3c(N)nn4cc(F)cnc34)CC2)CC1", "note": "[I-G-1, 2-amino-6-fluoro-N-(4-(4-(4-methylpiperazine-1-carbonyl)piperidin-1-yl)pyridin-3-yl)pyrazolo[1,5-a]pyrimidine-3-carboxamide]", "Cisplatin Sensitization Assay": "+++ (Compounds with a Cisplatin sensitization value of <0.02 μM are marked with “+++.”)"}, {"smiles": "CN(C)C(=O)C1CCN(c2ccncc2NC(=O)c2c(N)nn3cc(F)cnc23)CC1", "note": "[I-G-2, 2-amino-N-(4-(4-(dimethylcarbamoyl)piperidin-1-yl)pyridin-3-yl)-6-fluoropyrazolo[1,5-a]pyrimidine-3-carboxamide]", "Cisplatin Sensitization Assay": "+++ (Compounds with a Cisplatin sensitization value of <0.02 μM are marked with “+++.”)"}, {"smiles": "CN1CCN(C(=O)C2CCN(c3c(Cl)cncc3NC(=O)c3c(N)nn4cc(F)cnc34)CC2)CC1", "note": "[I-G-3, 2-amino-N-(5-chloro-4-(4-(4-methylpiperazine-1-carbonyl)piperidin-1-yl)pyridin-3-yl)-6-fluoropyrazolo[1,5-a]pyrimidine-3-carboxamide]", "Cisplatin Sensitization Assay": "+++ (Compounds with a Cisplatin sensitization value of <0.02 μM are marked with “+++.”)"}, {"smiles": "CN1CCN(C(=O)C2CCN(c3c(F)cncc3NC(=O)c3c(N)nn4cc(F)cnc34)CC2)CC1", "note": "[I-G-4, 2-amino-6-fluoro-N-(5-fluoro-4-(4-(4-methylpiperazine-1-carbonyl)piperidin-1-yl)pyridin-3-yl)pyrazolo[1,5-a]pyrimidine-3-carboxamide]", "Cisplatin Sensitization Assay": "+++ (Compounds with a Cisplatin sensitization value of <0.02 μM are marked with “+++.”)"}, {"smiles": "CN1CCN(C(=O)C2CCN(c3c(F)cncc3NC(=O)c3c(N)nn4cc(Cl)cnc34)CC2)CC1", "note": "[I-G-5, 2-amino-6-chloro-N-(5-fluoro-4-(4-(4-methylpiperazine-1-carbonyl)piperidin-1-yl)pyridin-3-yl)pyrazolo[1,5-a]pyrimidine-3-carboxamide]", "Cisplatin Sensitization Assay": "+++ (Compounds with a Cisplatin sensitization value of <0.02 μM are marked with “+++.”)"}, {"smiles": "CN1CCCN(C(=O)C2CCN(c3c(F)cncc3NC(=O)c3c(N)nn4cc(F)cnc34)CC2)CC1", "note": "[I-G-6, 2-amino-6-fluoro-N-(5-fluoro-4-(4-(4-methyl-1,4-diazepane-1-carbonyl)piperidin-1-yl)pyridin-3-yl)pyrazolo[1,5-a]pyrimidine-3-carboxamide]", "Cisplatin Sensitization Assay": "+++ (Compounds with a Cisplatin sensitization value of <0.02 μM are marked with “+++.”)"}, {"smiles": "Nc1nn2cc(F)cnc2c1C(=O)Nc1cncc(F)c1N1CCC(C(=O)N2CCN3CCC2CC3)CC1", "note": "[I-G-7, N-(4-(4-(1,4-diazabicyclo[3.2.2]nonane-4-carbonyl)piperidin-1-yl)-5-fluoropyridin-3-yl)-2-amino-6-fluoropyrazolo[1,5-a]pyrimidine-3-carboxamide]", "Cisplatin Sensitization Assay": "+++ (Compounds with a Cisplatin sensitization value of <0.02 μM are marked with “+++.”)"}, {"smiles": "Nc1nn2cc(F)cnc2c1C(=O)Nc1cncc(F)c1N1CCC(C(=O)N2CCC2)CC1", "note": "[I-G-8, 2-amino-N-(4-(4-(azetidine-1-carbonyl)piperidin-1-yl)-5-fluoropyridin-3-yl)-6-fluoropyrazolo[1,5-a]pyrimidine-3-carboxamide]", "Cisplatin Sensitization Assay": "+++ (Compounds with a Cisplatin sensitization value of <0.02 μM are marked with “+++.”)"}, {"smiles": "CCN1CCN(C(=O)C2CCN(c3c(F)cncc3NC(=O)c3c(N)nn4cc(F)cnc34)CC2)CC1", "note": "[I-G-9, 2-amino-N-(4-(4-(4-ethylpiperazine-1-carbonyl)piperidin-1-yl)-5-fluoropyridin-3-yl)-6-fluoropyrazolo[1,5-a]pyrimidine-3-carboxamide]", "Cisplatin Sensitization Assay": "+++ (Compounds with a Cisplatin sensitization value of <0.02 μM are marked with “+++.”)"}, {"smiles": "Nc1nn2cc(F)cnc2c1C(=O)Nc1cncc(F)c1N1CCC(C(=O)N2CCN3CCCC3C2)CC1", "note": "(stereo not shown) [I-G-10, 2-amino-6-fluoro-N-(5-fluoro-4-(4-(octahydropyrrolo[1,2-a]pyrazine-2-carbonyl)piperidin-1-yl)pyridin-3-yl)pyrazolo[1,5-a]pyrimidine-3-carboxamide]", "Cisplatin Sensitization Assay": "+++ (Compounds with a Cisplatin sensitization value of <0.02 μM are marked with “+++.”)"}, {"smiles": "CN(C)[C@@H]1CCN(C(=O)C2CCN(c3c(F)cncc3NC(=O)c3c(N)nn4cc(F)cnc34)CC2)C1", "note": "[I-G-11, (R)-2-amino-N-(4-(4-(3-(dimethylamino)pyrrolidine-1-carbonyl)piperidin-1-yl)-5-fluoropyridin-3-yl)-6-fluoropyrazolo[1,5-a]pyrimidine-3-carboxamide]", "Cisplatin Sensitization Assay": "+++ (Compounds with a Cisplatin sensitization value of <0.02 μM are marked with “+++.”)"}, {"smiles": "Nc1nn2cc(F)cnc2c1C(=O)Nc1cncc(F)c1N1CCC(C(=O)N2CCNCC2)CC1", "note": "[I-G-12, 2-amino-6-fluoro-N-(5-fluoro-4-(4-(piperazine-1-carbonyl)piperidin-1-yl)pyridin-3-yl)pyrazolo[1,5-a]pyrimidine-3-carboxamide]", "Cisplatin Sensitization Assay": "+++ (Compounds with a Cisplatin sensitization value of <0.02 μM are marked with “+++.”)"}, {"smiles": "Nc1nn2cc(F)cnc2c1C(=O)Nc1cncc(F)c1N1CCC(C(=O)N2CCN(C3CC3)CC2)CC1", "note": "[I-G-13, 2-amino-N-(4-(4-(4-cyclopropylpiperazine-1-carbonyl)piperidin-1-yl)-5-fluoropyridin-3-yl)-6-fluoropyrazolo[1,5-a]pyrimidine-3-carboxamide]", "Cisplatin Sensitization Assay": "+++ (Compounds with a Cisplatin sensitization value of <0.02 μM are marked with “+++.”)"}, {"smiles": "Nc1nn2cc(F)cnc2c1C(=O)Nc1cncc(F)c1N1CCC(C(=O)N2CC3(COC3)C2)CC1", "note": "[I-G-14, N-(4-(4-(2-oxa-6-azaspiro[3.3]heptane-6-carbonyl)piperidin-1-yl)-5-fluoropyridin-3-yl)-2-amino-6-fluoropyrazolo[1,5-a]pyrimidine-3-carboxamide]", "Cisplatin Sensitization Assay": "+++ (Compounds with a Cisplatin sensitization value of <0.02 μM are marked with “+++.”)"}, {"smiles": "CN1CCN(C(=O)C2CCN(c3c(F)cncc3NC(=O)c3c(N)nn4cc(F)cnc34)CC2)CC1(C)C", "note": "[I-G-15, 2-amino-6-fluoro-N-(5-fluoro-4-(4-(3,3,4-trimethylpiperazine-1-carbonyl)piperidin-1-yl)pyridin-3-yl)pyrazolo[1,5-a]pyrimidine-3-carboxamide]", "Cisplatin Sensitization Assay": "+++ (Compounds with a Cisplatin sensitization value of <0.02 μM are marked with “+++.”)"}, {"smiles": "CN(C)CCCN(C)C(=O)C1CCN(c2c(F)cncc2NC(=O)c2c(N)nn3cc(F)cnc23)CC1", "note": "[I-G-16, 2-amino-N-(4-(4-((3-(dimethylamino)propyl)(methyl)carbamoyl)piperidin-1-yl)-5-fluoropyridin-3-yl)-6-fluoropyrazolo[1,5-a]pyrimidine-3-carboxamide]", "Cisplatin Sensitization Assay": "+++ (Compounds with a Cisplatin sensitization value of <0.02 μM are marked with “+++.”)"}, {"smiles": "CNCCCN(C)C(=O)C1CCN(c2c(F)cncc2NC(=O)c2c(N)nn3cc(F)cnc23)CC1", "note": "[I-G-17]", "Cisplatin Sensitization Assay": "+ (Compounds with a Cisplatin sensitization value >0.2 μM but <5 μM are marked with “+.”)"}, {"smiles": "CN1CC2CN(C(=O)C3CCN(c4c(F)cncc4NC(=O)c4c(N)nn5cc(F)cnc45)CC3)CC2C1", "note": "(stereo not shown) [I-G-18, 2-amino-6-fluoro-N-(5-fluoro-4-(4-(5-methyloctahydropyrrolo[3,4-c]pyrrole-2-carbonyl)piperidin-1-yl)pyridin-3-yl)pyrazolo[1,5-a]pyrimidine-3-carboxamide]", "Cisplatin Sensitization Assay": "+++ (Compounds with a Cisplatin sensitization value of <0.02 μM are marked with “+++.”)"}, {"smiles": "CC(C)(C)NC(=O)C1CCN(c2c(F)cncc2NC(=O)c2c(N)nn3cc(F)cnc23)CC1", "note": "[I-G-19, 2-amino-N-(4-(4-(tert-butylcarbamoyl)piperidin-1-yl)-5-fluoropyridin-3-yl)-6-fluoropyrazolo[1,5-a]pyrimidine-3-carboxamide]", "Cisplatin Sensitization Assay": "++ (Compounds with a Cisplatin sensitization value >0.02 μM but <0.2 μM are marked with “++.”)"}, {"smiles": "CN1CCC(NC(=O)C2CCN(c3c(F)cncc3NC(=O)c3c(N)nn4cc(F)cnc34)CC2)CC1", "note": "[I-G-20, 2-amino-6-fluoro-N-(5-fluoro-4-(4-((1-methylpiperidin-4-yl)carbamoyl)piperidin-1-yl)pyridin-3-yl)pyrazolo[1,5-a]pyrimidine-3-carboxamide]", "Cisplatin Sensitization Assay": "+ (Compounds with a Cisplatin sensitization value >0.2 μM but <5 μM are marked with “+.”)"}]}]}
